The nature of data set [1]: Plasma IL-6 and TNFα in siRNA-treated APCΔ14 mice. Format: in vivo, mouse. The following applies: two-week treatment, GAST siRNA versus Luc siRNA. The method, then:
(§1) APCΔ14 mice were housed in conventional conditions, and randomized in two groups. The first group (n=9), was treated once daily by intraperitoneal administration of 250 μg/kg siRNA against the murine GAST mRNA. Control mice (n=9) were treated with a similar dose of siRNA against Luciferase. (siRNA sequence on FIG. S7 online). […] Adenoma scoring in the intestine and colon was described in (Colnot et al., 2004). Samples of healthy intestinal mucosa, as well as intestinal and colon adenomas, were fixed in 4% PFA and paraffin-embedded, or frozen in liquid nitrogen, for Western blotting, IHC or RNA extraction. Plasma was prepared and assayed for IL-6 and TNFα using the FACSarray system (Becton Dickinson).

The test system of data set [2] is Colo-26 murine CRC cells and Young adult mouse colon (YAMC) cells. The data set is described as follows: GAST mRNA after siRNA transfection of murine cells (RT-QPCR). Format: cell-based. The following applies: mouse cells (FIG. S1).
The next data set relates to APCΔ14 mice. The data set is described as follows: siRNA treatment of APCΔ14 mice (spontaneous intestinal tumorigenesis). Format: in vivo, mouse. The procedure: as §1

Take “siRNA directed against the murine GAST gene: siRNA against the murine GAST mRNA; siRNAs mPG sense 5′-GAAGAGGCCUACGGAUGGTT-3′ (SEQ ID No 29), antisense SEQ ID No 30 (antisense CCAUCCGUAGGCCUCUUCTT; chemistry not given here)”: the “levels of plasma IL-6 and TNFα (proinflammatory response)” value in data set [1] is “No significant differences”. For the same substance, the “down-regulation of GAST in mouse cells” value in data set [2] is “effective”. In the data set on APCΔ14 mice (APCΔ14 mice treated with siRNA), the “ICAT expression in adenomas” value is recorded as “significantly increased” and the “expression of Tcf-4 target genes in adenomas” value is “strong repression”. Moreover, the “number of cells staining for activated caspase 3 in adenomas” value in the data set with APCΔ14 mice (APCΔ14 mice treated with siRNA, immunohistochemistry) is “strongly elevated”. In the data set with APCΔ14 mice (APCΔ14 mice treated with siRNA, immunohistochemistry, compared to controls), the “Muc-2 and Alcian-blue positive cells in remaining small intestinal and colonic adenomas” value is on record as “greatly increased numbers”. In the data set on APCΔ14 mice (APCΔ14 mice, 250 μg/kg siRNA intraperitoneal once daily for two weeks, compared to Luciferase siRNA control animals), the “decrease in the total number of intestinal tumors” value is recorded as 20%. Also, in the data set on APCΔ14 mice (APCΔ14 mice, daily siRNA for two weeks, colon, Fischer's exact test p=0.228), the “reduction in tumor size in the colon” value is on record as “not reaching significance”. In addition, the “GAST gene and progastrin expression in intestinal adenomas” value in the data set with APCΔ14 mice (APCΔ14 mice, daily siRNA for two weeks, compared to Luciferase-specific siRNA) is on record as “reduction”. Further, the “tumor size in the intestine” value in the data set on APCΔ14 mice (APCΔ14 mice, daily siRNA for two weeks, compared to controls, Chi-square p<0.0001, n=9 per group) is “significant reduction”. Also, in the data set with APCΔ14 mice (APCΔ14 mice, daily siRNA for two weeks, ileum), the “reduction in tumor size in the ileum” value is recorded as “particularly marked”.

These data come from US20100209426A1, “INHIBITORS OF PROGASTRIN-INDUCED REPRESSION OF ICAT FOR TREATING AND/OR PREVENTING COLORECTAL CANCER, ADENOMATOUS POLYPOSIS OR METASTASIS DISPLAYING PROGASTRIN-SECRETING CELLS AND CELLS IN WHICH THE BETA-CATENIN/TCF-MEDIATED TRANSCRIPTIONAL PATHWAY IS CONSTITUTIVELY ACTIVE” (INSERM (INSTITUT NATIONAL DE LA SANTE ET DE LA REC HERCHE …, priority 2006, published 2010).
